The record followed here is ChEMBL document CHEMBL1201862, “PubChem BioAssay data set” (2004).

SMILES strings stand for the structures.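 Assay format: 96-well plates, 48-hour exposure. The concentration for 50% growth inhibition is given as GI50.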 The source made the active and inactive calls. No stated cut-off is given here; in the data, active = GI50 up to about 1.1 µM and inactive = higher. A value given as a limit tells only on which side of the number the result lay.

Test systems include NCI-H460; SK-MEL-28; Hs-578T; NCI/ADR-RES; SK-OV-3; MDA-N; MCF7; PC-3; T47D; CCRF-CEM; HL-60; BT-549; SNB-75; MDA-MB-231; OVCAR-8; SF-539; MOLT-4; A498; SR; HCT-15.
Common to all, as to test: NCI anticancer screen, dose series, 48 h

For the compound `C=C[C@@]1(C)CC2(C=C(CO)C(O)O2)Oc2c1c(=O)oc1cccc(C)c21` (stereo not given in full), the GI50 with NCI-H460 is 19.8 µM (inactive); in the test with SK-MEL-28 it was 7.74 µM (inactive); with Hs-578T, 10.6 µM (inactive); in the test with NCI/ADR-RES, 2.61 µM (inactive); in the test with SK-OV-3 it was 24.4 µM (inactive); in the test with MDA-N it was 4.03 µM (inactive). Besides, the GI50 with MCF7 is 6.62 µM (inactive); in the test with PC-3, 15.6 µM (inactive); in the test with T47D, 10.7 µM (inactive); with CCRF-CEM, 1.58 µM (inactive); in the test with HL-60, 1.77 µM (inactive); in the test with BT-549, 3.35 µM (inactive). The GI50 in the test with SNB-75 was 14.8 µM (inactive); in the test with MDA-MB-231, 10.5 µM (inactive); in the test on OVCAR-8, 5.28 µM (inactive); with SF-539, 5.53 µM (inactive); in the test with MOLT-4, 2.1 µM (inactive); with A498, 24.2 µM (inactive). The values for the GI50 with SR and in the test on HCT-15 were 2.4 µM (inactive) and 2.39 µM, respectively.

On to `CCCNc1[nH]c(C(C)=O)c(N)c1C(=S)Nc1ccccc1`, for which the GI50 with NCI-H460 was 33.9 µM (inactive); in the test on SK-MEL-28, 24.7 µM (inactive); in the test on Hs-578T it was 39.3 µM (inactive); in the test with NCI/ADR-RES it was 28.7 µM (inactive); with SK-OV-3, 45.5 µM (inactive); in the test on MDA-N, 41.4 µM (inactive). In addition, the GI50 with MCF7 is 19.2 µM (inactive); in the test with PC-3, > 100 µM (inactive); in the test on T47D it was 47.1 µM (inactive); in the test on CCRF-CEM it was 46.5 µM (inactive); with HL-60 it was 37.7 µM (inactive); in the test on BT-549, 24.2 µM (inactive). Besides, the GI50 in the test on SNB-75 was 37 µM (inactive); in the test on MDA-MB-231 it was 36.6 µM (inactive); in the test with OVCAR-8, 27.7 µM (inactive); in the test with SF-539, 10.8 µM (inactive); with MOLT-4, 69.2 µM (inactive); in the test with A498, 27.4 µM (inactive). In addition, the GI50 in the test on SR is 17.2 µM (inactive); in the test with HCT-15, 31.8 µM.

For the compound `c1ccc2c(c1)nc1n2CSCC1`, the GI50 in the test with NCI-H460, with SK-MEL-28, in the test with Hs-578T, with NCI/ADR-RES, with SK-OV-3 and in the test with MDA-N was > 100 µM (inactive) each time. Besides, the GI50 in the test with MCF7, with PC-3, with T47D, with CCRF-CEM, in the test with HL-60 and in the test on BT-549 was > 100 µM (inactive) each time. Further, the GI50 in the test with SNB-75, with MDA-MB-231, in the test with OVCAR-8, with SF-539, in the test on MOLT-4 and in the test with A498 was > 100 µM (inactive) throughout. For the same compound, the GI50 in the test with SR is > 100 µM (inactive); in the test with HCT-15, more than 100 µM.

`COCn1c2ccc(OC(C)=O)cc2c2c(=O)oc(N(C)C)nc21`: the GI50 in the test on NCI-H460, in the test on SK-MEL-28, in the test with Hs-578T, in the test on NCI/ADR-RES, in the test on SK-OV-3 and with MDA-N was > 100 µM (inactive) throughout. The GI50 with MCF7, in the test with PC-3, in the test on T47D, with CCRF-CEM, with HL-60 and in the test with BT-549 was > 100 µM (inactive) each time. Besides, the GI50 in the test on SNB-75, in the test with MDA-MB-231, in the test on OVCAR-8, in the test with SF-539, in the test on MOLT-4 and in the test on A498 was > 100 µM (inactive) each time. In addition, the GI50 was > 100 µM (inactive) in the test on SR and more than 100 µM with HCT-15.

With `O=c1cc(CN2CCCCC2)nc2ccc3c(O)cc(CN4CCCCC4)nc3n12`, the GI50 was > 100 µM (inactive) in the test with NCI-H460; > 100 µM (inactive) with SK-MEL-28; > 100 µM (inactive) with Hs-578T; > 100 µM (inactive) in the test with NCI/ADR-RES; 48.4 µM (inactive) with SK-OV-3; > 100 µM (inactive) in the test on MDA-N. Further, the GI50 in the test on MCF7, with PC-3, in the test with T47D, in the test with CCRF-CEM, in the test with HL-60 and in the test on BT-549 was > 100 µM (inactive) throughout. The GI50 was > 100 µM (inactive) with SNB-75; > 100 µM (inactive) with MDA-MB-231; > 100 µM (inactive) in the test with OVCAR-8; > 100 µM (inactive) with SF-539; 89.7 µM (inactive) in the test with MOLT-4; > 100 µM (inactive) with A498. For the same compound, the GI50 with SR is > 100 µM (inactive); in the test on HCT-15, more than 100 µM.
